What was measured:
B-Raf(V599E)(h) = molecular target: T1, B-Raf(V599E)(h) (Homo sapiens, UniProt P15056, V600E); assay: Eurofins kinase panel; format: biochemical; conditions: read-out: Inhibition rate (%)
T1 construct: purchased Eurofins (KinaseProfiler)

CDK2/cyclinE(h) = molecular target: T2, CDK2/cyclinE(h) (Homo sapiens, UniProt P24941); assay: Eurofins kinase panel; format: biochemical; conditions: read-out: Inhibition rate (%)
T2 construct: purchased Eurofins (KinaseProfiler)

cSRC(h) = molecular target: T3, cSRC(h) (Homo sapiens, UniProt P12931); assay: Eurofins kinase panel; format: biochemical; conditions: read-out: Inhibition rate (%)
T3 construct: purchased Eurofins (KinaseProfiler)
T3 sequence (P12931 whole entry): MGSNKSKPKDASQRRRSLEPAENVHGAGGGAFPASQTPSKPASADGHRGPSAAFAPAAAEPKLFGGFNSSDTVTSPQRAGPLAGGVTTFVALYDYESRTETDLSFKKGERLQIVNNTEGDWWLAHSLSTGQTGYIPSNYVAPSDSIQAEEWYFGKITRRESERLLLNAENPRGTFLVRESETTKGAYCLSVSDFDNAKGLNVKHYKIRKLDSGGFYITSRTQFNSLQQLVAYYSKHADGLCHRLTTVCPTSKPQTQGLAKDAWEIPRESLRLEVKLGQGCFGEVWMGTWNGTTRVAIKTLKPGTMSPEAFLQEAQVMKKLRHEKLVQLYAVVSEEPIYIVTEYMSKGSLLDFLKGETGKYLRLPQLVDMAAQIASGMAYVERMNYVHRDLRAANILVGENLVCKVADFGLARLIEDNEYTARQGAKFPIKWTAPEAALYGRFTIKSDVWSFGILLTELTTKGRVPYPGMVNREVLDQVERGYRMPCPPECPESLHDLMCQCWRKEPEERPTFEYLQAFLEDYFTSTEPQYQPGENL

GRK2(h) = molecular target: T4, GRK2(h) (Homo sapiens, UniProt P25098); assay: Eurofins kinase panel; format: biochemical; conditions: read-out: Inhibition rate (%)
T4 construct: purchased Eurofins (KinaseProfiler)
T4 sequence (P25098 1-689): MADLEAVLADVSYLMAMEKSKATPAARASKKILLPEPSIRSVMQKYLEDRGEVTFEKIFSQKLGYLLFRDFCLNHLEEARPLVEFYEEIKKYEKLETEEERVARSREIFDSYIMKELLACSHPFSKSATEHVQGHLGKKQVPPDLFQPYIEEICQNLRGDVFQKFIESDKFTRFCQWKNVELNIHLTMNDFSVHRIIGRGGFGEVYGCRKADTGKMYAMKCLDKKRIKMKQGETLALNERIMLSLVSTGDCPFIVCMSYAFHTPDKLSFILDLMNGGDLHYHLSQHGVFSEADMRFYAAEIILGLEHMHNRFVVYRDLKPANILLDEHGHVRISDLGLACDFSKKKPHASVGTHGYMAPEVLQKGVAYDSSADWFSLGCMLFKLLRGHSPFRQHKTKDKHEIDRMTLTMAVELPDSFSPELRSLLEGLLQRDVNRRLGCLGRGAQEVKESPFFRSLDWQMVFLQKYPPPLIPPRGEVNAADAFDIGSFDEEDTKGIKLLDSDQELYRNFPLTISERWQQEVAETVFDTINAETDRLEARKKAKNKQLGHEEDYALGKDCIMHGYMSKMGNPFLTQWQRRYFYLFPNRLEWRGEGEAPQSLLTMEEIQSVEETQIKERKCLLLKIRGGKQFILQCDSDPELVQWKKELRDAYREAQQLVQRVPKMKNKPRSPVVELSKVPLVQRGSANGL

HIPK1(h) = molecular target: T5, HIPK1(h) (Homo sapiens, UniProt Q86Z02); assay: Eurofins kinase panel; format: biochemical; conditions: read-out: Inhibition rate (%)
T5 construct: purchased Eurofins (KinaseProfiler)
T5 sequence (Q86Z02 whole entry): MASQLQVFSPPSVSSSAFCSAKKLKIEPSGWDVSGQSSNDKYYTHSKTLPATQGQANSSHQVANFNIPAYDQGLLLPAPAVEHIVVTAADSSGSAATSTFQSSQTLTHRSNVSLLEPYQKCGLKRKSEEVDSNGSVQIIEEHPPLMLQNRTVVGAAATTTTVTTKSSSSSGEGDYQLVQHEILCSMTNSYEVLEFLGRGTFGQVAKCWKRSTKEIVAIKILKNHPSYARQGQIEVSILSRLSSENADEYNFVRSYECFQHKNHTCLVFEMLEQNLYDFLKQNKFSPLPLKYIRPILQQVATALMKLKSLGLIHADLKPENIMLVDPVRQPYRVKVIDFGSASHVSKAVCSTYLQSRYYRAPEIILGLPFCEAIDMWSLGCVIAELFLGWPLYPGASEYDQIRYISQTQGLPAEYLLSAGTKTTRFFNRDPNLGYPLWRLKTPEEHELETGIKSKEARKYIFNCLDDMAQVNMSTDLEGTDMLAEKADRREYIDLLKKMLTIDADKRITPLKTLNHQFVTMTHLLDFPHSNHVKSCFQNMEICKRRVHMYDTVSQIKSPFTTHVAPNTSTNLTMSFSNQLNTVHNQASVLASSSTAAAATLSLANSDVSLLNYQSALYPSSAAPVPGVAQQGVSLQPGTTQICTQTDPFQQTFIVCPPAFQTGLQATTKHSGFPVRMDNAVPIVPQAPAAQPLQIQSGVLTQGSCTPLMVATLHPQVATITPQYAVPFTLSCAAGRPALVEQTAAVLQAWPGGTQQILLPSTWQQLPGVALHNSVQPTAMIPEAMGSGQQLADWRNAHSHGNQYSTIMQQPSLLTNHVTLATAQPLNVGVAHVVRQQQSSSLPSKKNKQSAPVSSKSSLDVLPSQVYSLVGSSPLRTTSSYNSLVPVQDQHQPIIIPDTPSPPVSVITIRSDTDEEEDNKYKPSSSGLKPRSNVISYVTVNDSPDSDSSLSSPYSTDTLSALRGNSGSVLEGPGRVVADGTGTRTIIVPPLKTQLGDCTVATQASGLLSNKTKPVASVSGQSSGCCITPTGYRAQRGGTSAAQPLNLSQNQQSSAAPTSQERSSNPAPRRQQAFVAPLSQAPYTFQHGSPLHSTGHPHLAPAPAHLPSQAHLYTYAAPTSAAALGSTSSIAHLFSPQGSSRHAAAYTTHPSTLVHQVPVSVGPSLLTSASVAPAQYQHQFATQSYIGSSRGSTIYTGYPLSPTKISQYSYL

JNK3(h) = molecular target: T6, JNK3(h) (Homo sapiens, UniProt P53779); assay: Eurofins kinase panel; format: biochemical; conditions: read-out: Inhibition rate (%)
T6 construct: purchased Eurofins (KinaseProfiler)
T6 sequence (P53779 whole entry): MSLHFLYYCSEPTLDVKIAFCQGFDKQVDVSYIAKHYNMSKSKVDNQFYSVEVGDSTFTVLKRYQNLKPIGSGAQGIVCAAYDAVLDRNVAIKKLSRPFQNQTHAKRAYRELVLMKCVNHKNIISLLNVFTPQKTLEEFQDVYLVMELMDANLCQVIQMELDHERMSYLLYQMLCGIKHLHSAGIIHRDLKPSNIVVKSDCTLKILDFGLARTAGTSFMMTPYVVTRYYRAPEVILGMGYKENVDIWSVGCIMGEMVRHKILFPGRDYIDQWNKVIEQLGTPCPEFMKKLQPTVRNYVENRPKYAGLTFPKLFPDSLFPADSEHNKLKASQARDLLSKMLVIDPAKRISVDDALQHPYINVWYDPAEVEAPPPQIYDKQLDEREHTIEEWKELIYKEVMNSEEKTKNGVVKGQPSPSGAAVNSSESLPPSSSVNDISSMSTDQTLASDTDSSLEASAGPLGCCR

ULK3(h) = molecular target: T7, ULK3(h) (Homo sapiens, UniProt Q6PHR2); assay: Eurofins kinase panel; format: biochemical; conditions: read-out: Inhibition rate (%)
T7 construct: purchased Eurofins (KinaseProfiler)
T7 sequence (Q6PHR2 1-472): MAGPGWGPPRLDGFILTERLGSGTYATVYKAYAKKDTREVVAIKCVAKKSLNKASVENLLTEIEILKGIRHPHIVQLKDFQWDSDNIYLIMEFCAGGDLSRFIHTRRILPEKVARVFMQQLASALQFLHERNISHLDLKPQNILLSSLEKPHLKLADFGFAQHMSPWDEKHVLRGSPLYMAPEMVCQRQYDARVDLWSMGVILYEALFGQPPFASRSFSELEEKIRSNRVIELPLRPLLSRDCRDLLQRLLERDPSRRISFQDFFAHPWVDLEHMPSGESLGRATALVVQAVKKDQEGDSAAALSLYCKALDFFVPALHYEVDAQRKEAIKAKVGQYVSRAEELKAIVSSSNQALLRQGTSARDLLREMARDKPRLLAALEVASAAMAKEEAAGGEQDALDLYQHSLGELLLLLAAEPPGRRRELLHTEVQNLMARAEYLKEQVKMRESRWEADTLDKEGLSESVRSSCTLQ

PBMC (CSF-1) = assay: Macrophage survival (CCK-8); format: cell-based; conditions: Homo sapiens, 168 h, 7 days, mean ± SD
Description: Murine bone marrow and human monocytes were stimulated with CSF-1 for 7 days together with the indicated inhibitor, and cell viability was evaluated by the CCK-8 assay. The IC50 values are shown as the mean ± SD (nM) from two independent tests. B-E, To test the impact of 3D185 on the polarization of CSF-1-induced macrophages, murine bone marrow cells and human monocytes were induced to mature into macrophages with CSF-1 for 7 days and then stimulated with CSF-1, IL-4 and IL-13 for an additional 48 h. The expression of the markers MHC-II (b), CD86 (c), and CD206 (d) on induced murine macrophages and CD206 expression on induced human macrophages (e) were determined by flow cytometry, and the mean fluorescence intensity (MFI) was analyzed with FlowJo. Representative data from two independent experiments. f Murine bone marrow cells (left panel) and human monocytes (right panel) were induced to mature into macrophages with CSF-1 for 7 days and then stimulated with CSF-1, IL-4 and IL-13 and treated with vehicle or the indicated inhibitor for an additional 48 h. Then, all cells were collected to count viable cells by staining with trypan blue
Murine bone marrow-derived macrophages (BMDMs) and PBMCs were used for cell viability studies. […] Cell viability was measured using the CCK-8 assay. For IL-4/IL-13-induced macrophage survival analysis, viable cells were counted by trypan blue exclusion.

T1 sequence (P15056 417-766 V600E limits assumed): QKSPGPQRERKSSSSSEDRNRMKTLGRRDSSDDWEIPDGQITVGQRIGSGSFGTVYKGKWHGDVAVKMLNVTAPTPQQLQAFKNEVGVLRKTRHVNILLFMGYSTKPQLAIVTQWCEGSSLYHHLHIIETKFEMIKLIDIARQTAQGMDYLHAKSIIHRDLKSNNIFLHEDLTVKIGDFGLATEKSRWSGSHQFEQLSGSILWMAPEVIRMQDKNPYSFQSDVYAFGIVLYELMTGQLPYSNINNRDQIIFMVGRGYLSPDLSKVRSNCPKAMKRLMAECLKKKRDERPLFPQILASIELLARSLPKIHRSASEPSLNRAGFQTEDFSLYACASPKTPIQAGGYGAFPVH

For `COc1cc(OC)c(Cl)c(-c2ccc3c(NC(=O)c4ccc(N5CCNC(C)(C)C5)cc4)n[nH]c3n2)c1Cl` [3D185], the inhibition at 0.01 µM (B-Raf(V599E)(h); 10 nM) was -1%, the inhibition at 0.1 µM (B-Raf(V599E)(h); 100 nM) was -6% and the inhibition at 1 µM (B-Raf(V599E)(h); 1000 nM) was 7%. For the same compound, the inhibition at 0.01 µM (CDK2/cyclinE(h); 10 nM) was -5%, the inhibition at 0.1 µM (CDK2/cyclinE(h); 100 nM) was 2% and the inhibition at 1 µM (CDK2/cyclinE(h); 1000 nM) was 10%. It also gave an inhibition at 0.01 µM (cSRC(h); 10 nM) of 26%, an inhibition at 0.1 µM (cSRC(h); 100 nM) of 53% and an inhibition at 1 µM (cSRC(h); 1000 nM) of 87%. It also gave an inhibition at 0.01 µM (GRK2(h); 10 nM) of 5%, an inhibition at 0.1 µM (GRK2(h); 100 nM) of 1% and an inhibition at 1 µM (GRK2(h); 1000 nM) of -4%. The inhibition at 0.01 µM (HIPK1(h); 10 nM) was -3%, the inhibition at 0.1 µM (HIPK1(h); 100 nM) was 4% and the inhibition at 1 µM (HIPK1(h); 1000 nM) was 10%. It also gave an inhibition at 0.01 µM (JNK3(h); 10 nM) of -17%, an inhibition at 0.1 µM (JNK3(h); 100 nM) of -22% and an inhibition at 1 µM (JNK3(h); 1000 nM) of -36%. It also gave an inhibition at 0.01 µM (ULK3(h); 10 nM) of -8%, an inhibition at 0.1 µM (ULK3(h); 100 nM) of 2% and an inhibition at 1 µM (ULK3(h); 1000 nM) of -1%. For the same compound, the IC50 (PBMC (CSF-1)) was 118 nM.
